Measured values reported in patent US12595504B2, “Methods for screening compounds for bactericidal activity and for determining the sensitivity of bacterial samples” (priority 2020, dated 2026).
Converted amounts (≈) assume the structure as drawn. Like-named read-outs stand apart in the source and are kept apart here.

Key:
Escherichia coli MG1655 = test: Antibiotic MIC determination (serial twofold dilutions, OD600 during 17 hours at 37° C.); format: cell-based; conditions: 37° C.; for MIC: Escherichia coli
Description: The Minimal Inhibitory Concentration (MIC) of the antibiotics was determined under the same culture conditions as the tests using the ATP assay kit. […] An exponentially growing culture (OD600=0.3) was added to each well (60 μl/well) of a sterile microtiter plate containing the test concentration of antibiotic (40 μl/well). The volume was completed to 120 μl with medium and OD600 nm measurements were performed using a microtiter plate reader (Infinite 200 PRO, TECAN) during 17 hours at 37° C.
In all the following experiments, the MIC values were measured for each antibiotic with parameters such as temperature, OD600 and equipment identical to those used for the bioluminescence assay.

[1] = test system: E. coli MG1655 reporter cells; format: cell-based, Escherichia coli; conditions: for Lag before ATP release (shortest, incompressible value): highest concentrations tested
Description: The classical luciferase was from Molecular Probes (ATP Determination Kit (A22066)). The thermostable luciferase was from “CheckLite AT100” (kikkoman). The Luciferin-luciferase reagents were prepared following manufacturer instructions. Bacteria from exponentially growing cultures (OD600=0.3) were added to each well (60 μl/well) of a black 96-microtiter plate (Greiner Bio-one, 655076) and 20 μl of the luciferin-luciferase reagent solution was added. The microtiter plate was incubated 5 min at 37° C. for reaction with the luciferase to eliminate traces of extracellular ATP. Then 40 μl of antibiotic solution (3 times concentrated) prepared in the culture medium were added. Bioluminescence of each well was monitored for 4 hours under shaking (218 rpm) and at 28 or 37° C., depending on the experiments (see legends of Figures). The reagent stability in presence or absence of antibiotics was checked in control experiments without bacteria but with 4 pmoles of ATP. Tests were also performed in 384-microtiter plates (Greiner Bio-one, 784076).
Aminoglycosides are bactericidal antibiotics causing translational miscoding with lethal consequences for the cell. Leakage of small molecules following an aminoglycoside shock was previously identified by different methods including radiolabelling. Therefore, the inventors investigated the response of live cells to aminoglycoside stress.

[2] = MG1655, read-out: MIC in MOPS glucose 0.4%, MOPS minimal medium glucose 0.4%
[3] = MG1655, LB medium, OD600 0.15 final, read-out: MIC in LB
[4] = antibiotic at 2 μg/mL, LB, 37° C.
[5] = antibiotic at 4 μg/mL, LB, 37° C.
[6] = antibiotic at 8 μg/mL, LB, 37° C.
[7] = antibiotic at 6.25 μg/mL, LB, 37° C.
[8] = antibiotic at 12.5 μg/mL, LB, 37° C.
[9] = antibiotic at 25 μg/mL, LB, 37° C.
[10] = antibiotic at 50 μg/mL, LB, 37° C.
[11] = antibiotic at 100 μg/mL, LB, 37° C.
[12] = antibiotic at 200 μg/mL, LB, 37° C.
[13] = MOPS minimal medium glucose 0.4%
[14] = antibiotic at 400 μg/mL, LB, 37° C.
[15] = MOPS minimal medium (glucose 0.4%), FIG. 11

Row | Compound | MIC (Escherichia coli MG1655; [2]) [µg/mL] | MIC (Escherichia coli MG1655; [3]) [µg/mL] | Lag time before ATP [1, 8] [min] | Lag time before ATP [1, 9] [min] | Lag time before ATP [1, 10] [min] | Lag time before ATP [1, 11] [min] | Shape of ATP release trace ([1]; LB medium, 37° C., FIG. 8) | Lag time before ATP [1, 12] [min] | MIC in LB (Escherichia coli MG1655; LB medium, OD600 0.15 final) [µg/mL] | MIC in MOPS glucose 0.4% (Escherichia coli MG1655; [13]) [µg/mL] | further results
1 | CC1COc2c(N3CCN(C)CC3)c(F)cc3c(=O)c(C(=O)O)cn1c23 (centres unmarked) [Ofloxacin] | 4 (≈ 11.1 µM) | 4 (≈ 11.1 µM) |  |  |  |  |  |  |  |  | Lag time of ATP release in minimal medium compared to rich medium (factor of decrease) ([1]; MOPS minimal medium vs LB): 2; Lag time before ATP ([1]; antibiotic at 1 μg/mL, LB, 37° C.): 105 min; Lag time before ATP [1, 4]: 95 min; Lag time before ATP [1, 5]: 84 min; Lag time before ATP [1, 6]: 77 min; Lag before ATP release (shortest, incompressible value) ([1]; LB, 37° C.): 77 min
2 | CO[C@H]1/C=C/O[C@@]2(C)Oc3c(C)c(O)c4c(O)c(c(/C=N/N5CCN(C)CC5)c(O)c4c3C2=O)NC(=O)/C(C)=C\C=C\[C@H](C)[C@H](O)[C@@H](C)[C@@H](O)[C@@H](C)[C@H](OC(C)=O)[C@@H]1C [Rifampicin] | 25 (≈ 30.4 µM) | 50 (≈ 60.8 µM) | 57.1 | 38 | 34.8 | 34.6 |  |  |  |  | Lag of ATP leakage ([1]; LB, FIG. 9): about 30 minutes; Lag time before ATP ([1]; antibiotic at 3.125 μg/mL, LB, 37° C.): 67 min; Lag time before ATP [1, 7]: 63.8 min
3 | CN[C@@H]1[C@H](O)[C@H](NC)[C@H]2O[C@@]3(O)C(=O)C[C@@H](C)O[C@H]3O[C@@H]2[C@H]1O [Spectinomycin] | 100 (≈ 301 µM) | 50 (≈ 150 µM) |  |  |  |  |  |  |  |  | Amplitude of ATP release ([1]; bacteriostatic antibiotics, LB, FIG. 9): very weak amplitude
4 | [H]/N=C(/N)N[C@H]1[C@H](O)[C@@H](O)[C@H](O[C@@H]2O[C@@H](C)[C@](O)(C=O)[C@H]2O[C@@H]2O[C@@H](CO)[C@H](O)[C@@H](O)[C@@H]2NC)[C@@H](N/C(N)=N\[H])[C@@H]1O [Streptomycin] | 6.25 (≈ 10.7 µM) | 50 (≈ 86 µM) | 39 | 21 | 16 | 12 | bi-phasic | 10 |  |  | Lag before ATP release (shortest, incompressible value) ([1]; LB, 37° C.): ~10 min
5 | CN(C)[C@@H]1C(O)=C(C(N)=O)C(=O)[C@@]2(O)C(O)=C3C(=O)c4c(O)cccc4[C@@](C)(O)[C@H]3C[C@@H]12 [Tetracycline] | 12.5 (≈ 28.1 µM) | 12.5 (≈ 28.1 µM) |  |  |  |  |  |  |  |  | High dose at which ATP release was observed ([1]; LB, FIG. 9): 4 times the MIC
6 | Cc1c(N)nc([C@H](CC(N)=O)NC[C@H](N)C(N)=O)nc1C(=O)N[C@H](C(=O)N[C@H](C)[C@@H](O)[C@H](C)C(=O)N[C@H](C(=O)NCCC1=N[C@@H](c2nc(C(=O)NCCCCN=C(N)N)cs2)CS1)[C@@H](C)O)[C@@H](O[C@@H]1O[C@@H](CO)[C@@H](O)[C@H](O)[C@@H]1O[C@H]1O[C@H](CO)[C@@H](O)[C@H](OC(N)=O)[C@@H]1O)c1cnc[nH]1 [Zeocin] |  |  | 112.2 | 113.1 | 97.5 | 85.7 |  | 68.6 | 200 (≈ 140 µM) | 200 (≈ 140 µM) | Lag time before ATP [1, 14]: 57.8 min; Lag time before ATP ([1]; antibiotic at 800 μg/mL, LB, 37° C.): 51.9 min
7 | Bleomycin |  |  |  | 164.0 | 142.0 | 98.0 |  | 78.0 | 100 | 200 | Lag time before ATP [1, 14]: 71.5 min
8 | Gentamicin |  |  | 12.9 |  |  |  | bi-phasic |  | 5.7 | 0.6 | Shape of ATP release trace [1, 15]: monophasic; Lag time before ATP ([1]; antibiotic at 0.19 μg/mL, LB, 37° C.): 136.1 min; Lag time before ATP ([1]; antibiotic at 0.39 μg/mL, LB, 37° C.): 136.3 min; Lag time before ATP ([1]; antibiotic at 0.78 μg/mL, LB, 37° C.): 67.1 min; Lag time before ATP ([1]; antibiotic at 1.56 μg/mL, LB, 37° C.): 54.0 min; Lag time before ATP ([1]; antibiotic at 3.12 μg/mL, LB, 37° C.): 30.2 min; Lag time before ATP [1, 7]: 16.2 min
9 | Polymyxin B |  |  |  |  |  |  | bi-phasic |  | 8 | 4 | Dose at which the amplitude of the initial burst was maximal ([1]; LB, FIG. 8): 4 µg/mL; Shape of ATP release trace [1, 15]: monophasic; Intensity of ATP release signal in minimal medium compared to rich medium (factor of decrease) ([1]; MOPS minimal medium vs LB): 3; Lag before ATP release ([1]; above the concentration of 4 μg/ml, LB): < 2.4 min; Lag time before ATP [1, 4]: 5.3 min; Lag time before ATP [1, 5]: 2.4 min; Lag time before ATP [1, 6]: < 2.4 min; Lag time before ATP ([1]; antibiotic at 16 μg/mL, LB, 37° C.): < 2.4 min; Lag time before ATP ([1]; antibiotic at 32 μg/mL, LB, 37° C.): < 2.4 min
